US20250163057A1, “DCN-1 MODULATING COMPOUNDS AND METHODS OF USE THEREOF” (Cellarity, Inc., priority 2023, published 2025)
Like-named read-outs stand apart in the source and are kept apart here.

Legend:
[1] = test system: Cullin-3 (CUL3) neddylation; assay: AlphaLISA assay for Cullin-3 (CUL3) neddylation in TF 1 cells; assay type: cell-based; conditions: 3 hours treatment
Method in brief: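 TF 1 cells in unsupplemented IMDM treated with compound concentrations for 3 h, then lysed. CUL3 neddylation detected by AlphaLISA (biotinylated anti-NEDD8, anti-CUL3 acceptor beads overnight, streptavidin donor beads 1 h); normalized to vehicle (0%) and 1 μM DI-1548 (100%), IC50 from Hill fits.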

[2] = target: DCN1 (DCUND1) protein PONY domain (Homo sapiens (Human), UniProt Q96GG9); assay: TR-FRET assay, DCN1 binding with FAM-labeled probe
Method in brief: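 Binding was read as the TR-FRET ratio between a FAM-tagged inhibitor probe and Tb-labeled biotinylated E. coli-expressed DCN1 PONY domain, measured 1, 5 and 24 h after compound addition. The two setups used 5 nM protein/20 nM FAM-probe or 0.31 nM protein/900 nM total probe (100 nM labeled), in TritonX buffer with 200 mM NaCl.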

[3] = target: DCN1 protein (Homo sapiens (Human), UniProt Q96GG9); assay: Intact Protein MS Analysis with the RapidFire-TOF System (covalent adduct formation); assay type: binding; conditions: MS Emax; 400 nM DCN1, 3 hours at room temperature
Method in brief: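 Tag-cleaved human DCN1 (400 nM) expressed in E. coli, in 25 mM Tris-HCl, 200 mM NaCl, 1 mM DTT, was incubated with 11 compound concentrations for 3 h at room temperature and quenched with 0.2% formic acid. Intact-protein Q-TOF MS with deconvolution detected the compound adduct mass.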

[4] = 24 hr after treatment with compound, read-out: TR FRET IC50 24 hr
[5] = TR FRET IC50 1 hr (nM), 1 hr after treatment with compound
[6] = read-out: TR FRET IC50 1 hr, 1 hr after treatment with compound

Sequence of DCN1 (DCUND1) protein PONY domain (Q96GG9 60-248): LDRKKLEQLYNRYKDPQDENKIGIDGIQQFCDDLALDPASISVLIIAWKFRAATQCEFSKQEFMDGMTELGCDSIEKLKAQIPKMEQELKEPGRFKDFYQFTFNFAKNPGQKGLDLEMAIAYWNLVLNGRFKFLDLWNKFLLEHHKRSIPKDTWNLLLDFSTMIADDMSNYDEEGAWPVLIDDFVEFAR
Sequence of DCN1 protein (Q96GG9 whole entry): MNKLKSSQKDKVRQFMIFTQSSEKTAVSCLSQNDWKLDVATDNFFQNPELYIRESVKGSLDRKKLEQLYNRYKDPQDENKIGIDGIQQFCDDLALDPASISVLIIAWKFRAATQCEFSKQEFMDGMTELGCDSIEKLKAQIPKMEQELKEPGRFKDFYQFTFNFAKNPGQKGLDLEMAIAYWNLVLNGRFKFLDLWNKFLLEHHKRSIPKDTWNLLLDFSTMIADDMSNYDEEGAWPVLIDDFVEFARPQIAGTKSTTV

Compound: CCN1C(=O)[C@@H](NC(=O)c2cccc(C(F)(F)F)c2)[C@@H](c2ccc(F)cc2)c2c(C(=O)N3CCOC[C@@H]3C#N)nn(-c3ccccc3)c21 (mixture of isomers) [Compound I-297]
- IC50 ([1]; Homo sapiens, TF-1, 3 h): ≤ 100 nM
- IC50 [2, 4]: ≤ 200 nM
- IC50 [2, 5]: 1000 to 3000 nM
- % Adduct Formation [3]: +++ (MS Emax % adduct formation greater than 80.0 and less than or equal to 100.0)

Compound: CCN1C(=O)[C@@H](NC(=O)c2cccc(C(F)(F)F)c2)[C@@H](c2ccc(F)cc2)c2c(C(=O)N(C)[C@@H](C#N)CCN3CC4CCC(C3)O4)nn(-c3ccccc3)c21 (mixture of isomers) [Compound I-319]
- IC50 ([1]; Homo sapiens, TF-1, 3 h): ≤ 100 nM
- IC50 [2, 4]: ≤ 200 nM
- IC50 [2, 5]: 1000 to 3000 nM
- % Adduct Formation [3]: ++ (MS Emax % adduct formation greater than 30.0 and less than or equal to 80.0)

Compound: CCN1C(=O)[C@@H](NC(=O)c2cccc(C(F)(F)F)c2)[C@@H](c2ccc(F)cc2)c2c(C(=O)N(CC#N)CCN3CC4CC(C3)O4)nn(-c3ccccc3)c21 (mixture of isomers) [Compound I-322]
- IC50 ([1]; Homo sapiens, TF-1, 3 h): ≤ 100 nM
- IC50 [2, 4]: ≤ 200 nM
- IC50 [2, 6]: ≤ 200 nM
- % Adduct Formation [3]: +++ (MS Emax % adduct formation greater than 80.0 and less than or equal to 100.0)

Compound: CCN1C(=O)[C@@H](NC(=O)c2cccc(C(F)(F)F)c2)[C@@H](c2ccc(F)cc2)c2c(C(=O)N(CC#N)CCN3CC4CCC(C3)O4)nn(-c3ccccc3)c21 (mixture of isomers) [Compound I-324]
- IC50 ([1]; Homo sapiens, TF-1, 3 h): ≤ 100 nM
- IC50 [2, 4]: ≤ 200 nM
- IC50 [2, 5]: 200 to 1000 nM
- % Adduct Formation [3]: +++ (MS Emax % adduct formation greater than 80.0 and less than or equal to 100.0)

Compound: CCN1C(=O)[C@@H](NC(=O)c2cccc(C(F)(F)F)c2)[C@@H](C2CC2)c2c(C(=O)N(C)C(C)C#N)nn(C3CCOCC3)c21 (mixture of isomers) [Compound I-349]
- IC50 ([1]; Homo sapiens, TF-1, 3 h): ≤ 100 nM
- IC50 [2, 4]: ≤ 200 nM
- IC50 [2, 6]: ≤ 200 nM
- % Adduct Formation [3]: +++ (MS Emax % adduct formation greater than 80.0 and less than or equal to 100.0)

Compound: N#C[C@@H]1C[C@H]2C[C@H]2N1C(=O)c1nn(C2CCOCC2)c2c1[C@H](C1CC1)[C@H](NC(=O)c1cccc(C(F)(F)F)c1)C(=O)N2 (mixture of isomers) [Compound I-385]
- IC50 ([1]; Homo sapiens, TF-1, 3 h): ≤ 100 nM
- IC50 [2, 4]: ≤ 200 nM
- IC50 [2, 5]: 1000 to 3000 nM
- % Adduct Formation [3]: +++ (MS Emax % adduct formation greater than 80.0 and less than or equal to 100.0)

Compound: C=C(CN1CCN(C2COC2)CC1)C(=O)NCc1nn(-c2ccccc2)c2c1[C@H](c1ccc(F)cc1)[C@H](NC(=O)c1cccc(C(F)(F)F)c1)C(=O)N2CC (racemic) [Compound I-57]
- IC50 ([1]; Homo sapiens, TF-1, 3 h): ≤ 100 nM
- IC50 [2, 4]: ≤ 200 nM
- IC50 [2, 6]: ≤ 200 nM
- % Adduct Formation [3]: ++ (MS Emax % adduct formation greater than 30.0 and less than or equal to 80.0)

Compound: C=C(CN1CCOCC1)C(=O)NCc1nn(-c2ccccc2)c2c1[C@H](c1ccc(F)cc1)[C@H](NC(=O)c1cccc(C(F)(F)F)c1)C(=O)N2CC (racemic) [Compound I-67]
- IC50 ([1]; Homo sapiens, TF-1, 3 h): 100 to 1000 nM
- IC50 [2, 4]: ≤ 200 nM
- IC50 [2, 6]: ≤ 200 nM
- % Adduct Formation [3]: + (MS Emax % adduct formation greater than or equal to 0.0 and less than or equal to 30.0)

Compound: CCN1C(=O)[C@@H](NC(=O)c2cccc(C(F)(F)F)c2)[C@@H](c2ccc(F)cc2)c2c(NC(=O)CC#N)nn(-c3ccccc3)c21 (racemic) [Compound I-80]
- IC50 ([1]; Homo sapiens, TF-1, 3 h): ≤ 100 nM
- IC50 [2, 4]: 1000 to 3000 nM
- IC50 [2, 5]: 1000 to 3000 nM
- % Adduct Formation [3]: + (MS Emax % adduct formation greater than or equal to 0.0 and less than or equal to 30.0)

Compound: CCN1C(=O)[C@@H](NC(=O)c2cccc(C(F)(F)F)c2)[C@@H](c2ccc(F)cc2)c2c(C(=O)N(CC#N)CCCN(C)C)nn(-c3ccccc3)c21 (racemic) [Compound I-271]
- IC50 ([1]; Homo sapiens, TF-1, 3 h): ≤ 100 nM
- IC50 [2, 4]: ≤ 200 nM
- IC50 [2, 6]: ≤ 200 nM
- % Adduct Formation [3]: +++ (MS Emax % adduct formation greater than 80.0 and less than or equal to 100.0)

Compound: CCN1C(=O)[C@@H](NC(=O)c2cccc(C(F)(F)F)c2)[C@@H](c2ccc(F)cc2)c2c(C(=O)N(C)CC#N)nn(-c3ccccc3)c21 (racemic) [Compound I-282]
- IC50 [1]: ≤ 100 nM
- IC50 [2, 4]: ≤ 200 nM
- IC50 [2, 6]: ≤ 200 nM
- % Adduct Formation [3]: +++ (MS Emax % adduct formation greater than 80.0 and less than or equal to 100.0)

Compound: CCN1C(=O)[C@@H](NC(=O)c2cccc(C(F)(F)F)c2)[C@@H](c2ccc(F)cc2)c2c(C(=O)N(CC#N)CCN3CCOCC3)nn(-c3ccccc3)c21 (racemic) [Compound I-320]
- IC50 ([1]; Homo sapiens, TF-1, 3 h): ≤ 100 nM
- IC50 [2, 4]: ≤ 200 nM
- IC50 [2, 6]: ≤ 200 nM
- % Adduct Formation [3]: +++ (MS Emax % adduct formation greater than 80.0 and less than or equal to 100.0)

Compound: CCN1C(=O)[C@@H](NC(=O)c2cccc(C(F)(F)F)c2)[C@@H](c2ccc(F)cc2)c2c(C(=O)N(CC#N)CCN(C)C3COC3)nn(-c3ccccc3)c21 (racemic) [Compound I-321]
- IC50 ([1]; Homo sapiens, TF-1, 3 h): ≤ 100 nM
- IC50 [2, 4]: ≤ 200 nM
- IC50 [2, 6]: ≤ 200 nM
- % Adduct Formation [3]: +++ (MS Emax % adduct formation greater than 80.0 and less than or equal to 100.0)

Compound: CCN1C(=O)[C@@H](NC(=O)c2cccc(C(F)(F)F)c2)[C@@H](c2ccc(F)cc2)c2c(C(=O)N(C)[C@@H](C#N)CCO)nn(-c3ccccc3)c21 (relative stereo) [Compound I-290, (4S,5S)—N-[(1R*)-1-cyano-3-hydroxypropyl]-7-ethyl-4-(4-fluorophenyl)-N-methyl-6-oxo-1-phenyl-5-[3-(trifluoromethyl)benzamido]-4H,5H-pyrazolo[3,4-b]pyridine-3-carboxamide]
- IC50 ([1]; Homo sapiens, TF-1, 3 h): ≤ 100 nM
- IC50 [2, 4]: ≤ 200 nM
- IC50 [2, 5]: ≤ 200 nM
- % Adduct Formation [3]: + (MS Emax % adduct formation greater than or equal to 0.0 and less than or equal to 30.0)

Compound: CCN1C(=O)[C@@H](NC(=O)c2cccc(C(F)(F)F)c2)[C@@H](c2ccc(F)cc2)c2c(C(=O)N(C)[C@H](C#N)CCO)nn(-c3ccccc3)c21 (relative stereo) [Compound I-301, (4S,5S)—N-[(1S*)-1-cyano-3-hydroxypropyl]-7-ethyl-4-(4-fluorophenyl)-N-methyl-6-oxo-1-phenyl-5-[3-(trifluoromethyl)benzamido]-4H,5H-pyrazolo[3,4-b]pyridine-3-carboxamide]
- IC50 ([1]; Homo sapiens, TF-1, 3 h): ≤ 100 nM
- IC50 [2, 4]: ≤ 200 nM
- IC50 [2, 5]: ≤ 200 nM
- % Adduct Formation [3]: ++ (MS Emax % adduct formation greater than 30.0 and less than or equal to 80.0)

Compound: CCN1C(=O)[C@@H](NC(=O)c2cccc(C(F)(F)F)c2)[C@@H](c2ccc(F)cc2)c2c(C(=O)N(C)[C@H](C)C#N)nn(-c3ccccc3)c21 (single isomer, unassigned) [Compound I-289, (4S,5S)—N—((R*)-1-cyanoethyl)-7-ethyl-4-(4-fluorophenyl)-N-methyl-6-oxo-1-phenyl-5-(3-(trifluoromethyl)benzamido)-4,5,6,7-tetrahydro-1H-pyrazolo[3,4-b]pyridine-3-carboxamide]
- IC50 ([1]; Homo sapiens, TF-1, 3 h): ≤ 100 nM
- IC50 [2, 4]: ≤ 200 nM
- IC50 [2, 5]: ≤ 200 nM
- % Adduct Formation [3]: +++ (MS Emax % adduct formation greater than 80.0 and less than or equal to 100.0)

Compound: CCN1C(=O)[C@@H](NC(=O)c2cccc(C(F)(F)F)c2)[C@@H](c2ccc(F)cc2)c2c(C(=O)N(C)[C@@H](C#N)C3COC3)nn(-c3ccccc3)c21 (single isomer, unassigned) [Compound I-291]
- IC50 ([1]; Homo sapiens, TF-1, 3 h): ≤ 100 nM
- IC50 [2, 4]: ≤ 200 nM
- IC50 [2, 6]: ≤ 200 nM
- % Adduct Formation [3]: +++ (MS Emax % adduct formation greater than 80.0 and less than or equal to 100.0)
